# Laboratory results taken from patent US10399974B2, “N2-phenyl-pyrido[3,4-D]pyrimidine-2, 8-diamine derivatives and their use as Mps1 inhibitors” (Cancer Research Technology Limited, priority 2014, dated 2019).
# Target: full length MPS1 (Homo sapiens (Human), UniProt P33981)
# Test: Measurement of Inhibition of MPS1 Kinase
# Type: biochemical
# Details: not given
# Experimental: Measurement of Inhibition of MPS1 Kinase
# (5 μM), ATP (10 μM), either DMSO (1% v/v) or the test compound (in the range 0.25 nM-100 μM in 1% DMSO) and assay buffer (50 mM HEPES (pH 7.0), 0.02% NaN3, 0.01% BSA, 0.1 mM Orthovandate, […], 1 μM DTT, Roche protease inhibitor). The reaction was carried out for 60 min at room temperature and stopped by the addition of buffer (10 μl) containing 20 mM EDTA, 0.05% (v/v) Brij-35, in 0.1M HEPES-buffered saline (Free acid, Sigma, UK). The plate was read on a Caliper EZ reader II (Caliper Life Sciences).
# The reader provides a Software package (‘Reviewer’) which converts the peak heights into % conversion by measuring both product and substrate peak and also allows selection of control well which represent 0% and 100% inhibition, respectively. The % inhibition of the compounds is calculated relative to the means of selected control wells. IC50s are determined by testing the compounds at a range of concentrations from 0.25 nM-100 μM. The % inhibitions at each concentration are then fitted to a 4 parameter logistic fit: y=(a+((b−a)/(1+((c/x^d)))) where a=asym min, b=asym max, c=IC50 and d=hill coefficient
# Chain of full length MPS1 (P33981 whole entry): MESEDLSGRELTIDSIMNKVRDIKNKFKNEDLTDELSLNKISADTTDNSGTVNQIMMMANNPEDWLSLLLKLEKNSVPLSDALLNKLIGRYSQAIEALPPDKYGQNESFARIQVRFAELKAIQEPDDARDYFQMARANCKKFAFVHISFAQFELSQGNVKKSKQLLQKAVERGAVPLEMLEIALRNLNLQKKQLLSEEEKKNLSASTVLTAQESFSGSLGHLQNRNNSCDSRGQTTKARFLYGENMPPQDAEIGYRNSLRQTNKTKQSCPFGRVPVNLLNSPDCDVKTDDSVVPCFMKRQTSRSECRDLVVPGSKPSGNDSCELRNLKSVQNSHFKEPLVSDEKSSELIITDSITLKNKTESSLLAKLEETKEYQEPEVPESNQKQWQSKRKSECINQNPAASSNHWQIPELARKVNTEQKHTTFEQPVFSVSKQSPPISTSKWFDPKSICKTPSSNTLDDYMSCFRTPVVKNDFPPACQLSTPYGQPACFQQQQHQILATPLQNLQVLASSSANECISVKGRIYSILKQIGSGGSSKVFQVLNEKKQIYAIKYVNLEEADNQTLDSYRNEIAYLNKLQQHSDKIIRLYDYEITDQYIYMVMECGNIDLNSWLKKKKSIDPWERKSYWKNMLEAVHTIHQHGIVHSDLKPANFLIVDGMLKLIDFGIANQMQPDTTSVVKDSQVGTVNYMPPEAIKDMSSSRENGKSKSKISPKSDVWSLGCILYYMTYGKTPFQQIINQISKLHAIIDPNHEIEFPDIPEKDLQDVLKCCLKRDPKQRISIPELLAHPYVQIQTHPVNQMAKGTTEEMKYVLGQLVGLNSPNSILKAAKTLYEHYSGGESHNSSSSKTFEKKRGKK
row,IC50 [nM],Compound
1,2,"CCOc1cc(-c2nncn2C)ccc1Nc1ncc2cc(C)nc(N3CC(C)(C)C3)c2n1 [Example 29, 8-(3,3-dimethylazetidin-1-yl)-N-(2-ethoxy-4-(4-methyl-4H-1,2,4-triazol-3-yl)phenyl)-6-methylpyrido[3,4-d]pyrimidin-2-amine]"

# Same assay, conditions: full length MPS1 12.5 nM or 3 nM, H236 peptide 5 μM, ATP 10 μM, 60 min at room temperature, Caliper EZ reader II; read-out: MPS1 IC50
row,Compound,IC50 [nM]
1,"CCOc1cc(-c2nncn2C)ccc1Nc1ncc2cc(C)nc(N3CCC(OC)C3)c2n1 (centres unmarked) [Example 39, N-(2-ethoxy-4-(4-methyl-4H-1,2,4-triazol-3-yl)phenyl)-8-(3-methoxypyrrolidin-1-yl)-6-methylpyrido[3,4-d]pyrimidin-2-amine]",3
2,"COc1cc(-c2ncco2)ccc1Nc1ncc2cc(C)nc(NCC(C)(C)C)c2n1 [Example 14, N2-(2-methoxy-4-(oxazol-2-yl)phenyl)-6-methyl-N8-neopentylpyrido[3,4-d]pyrimidine-2,8-diamine]",59
3,"CCOc1cc(-c2nncn2C)ccc1Nc1ncc2cc(C)nc(NCC3COC3)c2n1 [Example 57, N2-(2-ethoxy-4-(4-methyl-4H-1,2,4-triazol-3-yl)phenyl)-6-methyl-N8-(oxetan-3-ylmethyl)pyrido[3,4-d]pyrimidine-2,8-diamine]",3
4,"CCOc1cc(-c2nncn2C)ccc1Nc1ncc2cc(C)nc(N[C@@H](C)C(C)(C)C)c2n1 [Example 54, (S)-N8-(3,3-dimethylbutan-2-yl)-N2-(2-ethoxy-4-(4-methyl-4H-1,2,4-triazol-3-yl)phenyl)-6-methylpyrido[3,4-d]pyrimidine-2,8-diamine]",4
5,"CCOc1cc(-c2nncn2C)ccc1Nc1ncc2cc(C)nc(N3CCC(C#N)CC3)c2n1 [Example 5, 1-(2-((2-ethoxy-4-(4-methyl-4H-1,2,4-triazol-3-yl)phenyl)amino)-6-methylpyrido[3,4-d]pyrimidin-8-yl)piperidine-4-carbonitrile]",3
6,"CCOc1cc(-c2nncn2C)ccc1Nc1ncc2cc(C)nc(N3CC(C(F)(F)F)C3)c2n1 [Example 40, N-(2-ethoxy-4-(4-methyl-4H-1,2,4-triazol-3-yl)phenyl)-6-methyl-8-(3-(trifluoromethyl)azetidin-1-yl)pyrido[3,4-d]pyrimidin-2-amine]",5
7,"CCOc1cc(-c2nncn2CC)ccc1Nc1ncc2cc(C)nc(NCC(C)(C)C)c2n1 [Example 26, N2-(2-ethoxy-4-(4-ethyl-4H-1,2,4-triazol-3-yl)phenyl)-6-methyl-N8-neopentylpyrido[3,4-d]pyrimidine-2,8-diamine]",6
8,"COc1cc(-c2cnnn2C)ccc1Nc1ncc2cc(C)nc(NCC(C)(C)C)c2n1 [Example 1, N2-(2-methoxy-4-(1-methyl-1H-1,2,3-triazol-5-yl)phenyl)-6-methyl-N8-neopentylpyrido[3,4-d]pyrimidine-2,8-diamine]",0.5
9,"CCOc1cc(-c2nnc(C)n2C)ccc1Nc1ncc2cc(C)nc(NCC(C)(C)C)c2n1 [Example 7, N2-(4-(4,5-dimethyl-4H-1,2,4-triazol-3-yl)-2-ethoxyphenyl)-6-methyl-N8-neopentylpyrido[3,4-d]pyrimidine-2,8-diamine]",4
10,"Cc1cc2cnc(Nc3ccc(-c4nncn4C)cc3OC(F)F)nc2c(NCC(C)(C)C)n1 [Example 15, N2-(2-(difluoromethoxy)-4-(4-methyl-4H-1,2,4-triazol-3-yl)phenyl)-6-methyl-N8-neopentylpyrido[3,4-d]pyrimidine-2,8-diamine]",1
11,"CCOc1cc(-c2nncn2C)ccc1Nc1ncc2cc(C)nc(N3CC4(CCOCC4)C3)c2n1 [Example 4, N-(2-ethoxy-4-(4-methyl-4H-1,2,4-triazol-3-yl)phenyl)-6-methyl-8-(7-oxa-2-azaspiro[3.5]nonan-2-yl)pyrido[3,4-d]pyrimidin-2-amine]",2
12,"CCOc1cc(-c2nncn2C)ccc1Nc1ncc2cc(C)nc(N3CC(C)(OCC)C3)c2n1 [Example 61, 8-(3-ethoxy-3-methylazetidin-1-yl)-N-(2-ethoxy-4-(4-methyl-4H-1,2,4-triazol-3-yl)phenyl)-6-methylpyrido[3,4-d]pyrimidin-2-amine]",4
13,"COc1cc(-c2nnnn2C)ccc1Nc1ncc2cc(C)nc(NCC(C)(C)C)c2n1 [Example 16, N2-(2-methoxy-4-(1-methyl-1H-tetrazol-5-yl)phenyl)-6-methyl-N8-neopentylpyrido[3,4-d]pyrimidine-2,8-diamine]",5
14,"COc1cc(-c2nccn2C)ccc1Nc1ncc2cc(C)nc(NCC(C)(C)C)c2n1 [Example 12, N2-(2-methoxy-4-(1-methyl-1H-imidazol-2-yl)phenyl)-6-methyl-N8-neopentylpyrido[3,4-d]pyrimidine-2,8-diamine]",4
15,"CCOc1cc(-c2nncn2C)ccc1Nc1ncc2cc(C)nc(N3CCC4(CCOC4)C3)c2n1 (centres unmarked) [Example 27, N-(2-ethoxy-4-(4-methyl-4H-1,2,4-triazol-3-yl)phenyl)-6-methyl-8-(2-oxa-7-azaspiro[4.4]nonan-7-yl)pyrido[3,4-d]pyrimidin-2-amine]",4

# Results, then the compound that gave them:
row,IC50 [nM],Compound
1,12,"COc1cc(-c2cnc(C)n2C)ccc1Nc1ncc2cc(C)nc(N3CC4(CCOCC4)C3)c2n1 [Example 20, N-(4-(1,2-dimethyl-1H-imidazol-5-yl)-2-methoxyphenyl)-6-methyl-8-(7-oxa-2-azaspiro[3.5]nonan-2-yl)pyrido[3,4-d]pyrimidin-2-amine]"
2,6,"CCOc1cc(-c2nncn2C)ccc1Nc1ncc2cc(C)nc(N3CC(N(C)C)C3)c2n1 [Example 51, 8-(3-(dimethylamino)azetidin-1-yl)-N-(2-ethoxy-4-(4-methyl-4H-1,2,4-triazol-3-yl)phenyl)-6-methylpyrido[3,4-d]pyrimidin-2-amine]"
3,3,"CCOc1cc(-c2nncn2C)ccc1Nc1ncc2cc(C)nc(N3CCC(OC)CC3)c2n1 [Example 46, N-(2-ethoxy-4-(4-methyl-4H-1,2,4-triazol-3-yl)phenyl)-8-(4-methoxypiperidin-1-yl)-6-methylpyrido[3,4-d]pyrimidin-2-amine]"
4,4,"CCOc1cc(-c2nncn2C)ccc1Nc1ncc2cc(C)nc(NCC3(OC)CCC3)c2n1 [Example 59, N2-(2-ethoxy-4-(4-methyl-4H-1,2,4-triazol-3-yl)phenyl)-N8-((1-methoxycyclobutyl)methyl)-6-methylpyrido[3,4-d]pyrimidine-2,8-diamine]"
5,2,"CCOc1cc(-c2nncn2CC)ccc1Nc1ncc2cc(C)nc(N3CC4(CCOCC4)C3)c2n1 [Example 24, N-(2-ethoxy-4-(4-ethyl-4H-1,2,4-triazol-3-yl)phenyl)-6-methyl-8-(7-oxa-2-azaspiro[3.5]nonan-2-yl)pyrido[3,4-d]pyrimidin-2-amine]"
6,16,"Cc1cc2cnc(Nc3ccc(-c4nncn4C)cc3OC(F)F)nc2c(N2CC(C)(C)C2)n1 [Example 62, N-(2-(difluoromethoxy)-4-(4-methyl-4H-1,2,4-triazol-3-yl)phenyl)-8-(3,3-dimethylazetidin-1-yl)-6-methylpyrido[3,4-d]pyrimidin-2-amine]"
7,36,"COc1cc(-c2ccn(C)n2)ccc1Nc1ncc2cc(C)nc(NCC(C)(C)C)c2n1 [Example 11, N2-(2-methoxy-4-(1-methyl-1H-pyrazol-3-yl)phenyl)-6-methyl-N8-neopentylpyrido[3,4-d]pyrimidine-2,8-diamine]"
8,518,"CCOc1cc(-c2nncn2C)ccc1Nc1ncc2cc(C)nc(NC3CN(C)C3)c2n1 [Example 58, N2-(2-ethoxy-4-(4-methyl-4H-1,2,4-triazol-3-yl)phenyl)-6-methyl-N8-(1-methylazetidin-3-yl)pyrido[3,4-d]pyrimidine-2,8-diamine]"
9,2,"CCOc1cc(-c2nncn2C)ccc1Nc1ncc2cc(C)nc(N3CC4CC4C3)c2n1 (centres unmarked) [Example 50, 8-(3-azabicyclo[3.1.0]hexan-3-yl)-N-(2-ethoxy-4-(4-methyl-4H-1,2,4-triazol-3-yl)phenyl)-6-methylpyrido[3,4-d]pyrimidin-2-amine]"
10,3,"CCOc1cc(-c2nncn2C)ccc1Nc1ncc2cc(C)nc(NCC3(O)CCC3)c2n1 [Example 8, 1-(((2-((2-ethoxy-4-(4-methyl-4H-1,2,4-triazol-3-yl)phenyl)amino)-6-methylpyrido[3,4-d]pyrimidin-8-yl)amino)methyl)cyclobutanol]"
11,3,"COc1cc(-c2cnc(C)n2C)ccc1Nc1ncc2cc(C)nc(N3CCC(C#N)CC3)c2n1 [Example 34, 1-(2-((4-(1,2-dimethyl-1H-imidazol-5-yl)-2-methoxyphenyl)amino)-6-methylpyrido[3,4-d]pyrimidin-8-yl)piperidine-4-carbonitrile]"
12,3,"CCOc1cc(-c2nncn2C)ccc1Nc1ncc2cc(C)nc(N3CC(CC)(OC)C3)c2n1 [Example 60, N-(2-ethoxy-4-(4-methyl-4H-1,2,4-triazol-3-yl)phenyl)-8-(3-ethyl-3-methoxyazetidin-1-yl)-6-methylpyrido[3,4-d]pyrimidin-2-amine]"
13,18,"COc1cc(-c2ccnn2C)ccc1Nc1ncc2cc(C)nc(NCC(C)(C)C)c2n1 [Example 13, N2-(2-methoxy-4-(1-methyl-1H-pyrazol-5-yl)phenyl)-6-methyl-N8-neopentylpyrido[3,4-d]pyrimidine-2,8-diamine]"
